Laboratory results taken from PubChem BioAssay (NCI).
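Cells were grown in 96-well plates and exposed to each compound for 48 hours at five concentrations; endpoints were interpolated linearly between bracketing concentrations, or set to the highest concentration if not reached. Here, GI50 denotes the concentration required for 50% inhibition of growth. TGI: concentration producing complete growth inhibition.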

How the values were obtained:
Experiment in all cases: NCI-60 cell line screen, 48 h
786-0 renal = test system: 786-0 renal
A498 renal = test system: A498 renal
A549 NSCLC = test system: A549 NSCLC
ACHN renal = test system: ACHN renal
BT-549 breast = test system: BT-549 breast
CAKI-1 renal = test system: CAKI-1 renal
CCRF-CEM leukemia = test system: CCRF-CEM leukemia
COLO 205 colon = test system: COLO 205 colon
DU-145 prostate = test system: DU-145 prostate
EKVX NSCLC = test system: EKVX NSCLC
HCC-2998 colon = test system: HCC-2998 colon
HCT-116 colon = test system: HCT-116 colon
HCT-15 colon = test system: HCT-15 colon
HL-60(TB) leukemia = test system: HL-60(TB) leukemia
HOP-62 NSCLC = test system: HOP-62 NSCLC
HOP-92 NSCLC = test system: HOP-92 NSCLC
HS 578T breast = test system: HS 578T breast
HT29 colon = test system: HT29 colon
IGROV1 ovarian = test system: IGROV1 ovarian
K-562 leukemia = test system: K-562 leukemia
KM12 colon = test system: KM12 colon
LOX IMVI melanoma = test system: LOX IMVI melanoma
M14 melanoma = test system: M14 melanoma
MALME-3M melanoma = test system: MALME-3M melanoma
MCF7 breast = test system: MCF7 breast
MDA-MB-231 breast = test system: MDA-MB-231 breast
MDA-MB-435 = test system: MDA-MB-435
MOLT-4 leukemia = test system: MOLT-4 leukemia
NCI-H226 lung = test system: NCI-H226 lung
NCI-H23 lung = test system: NCI-H23 lung
NCI-H460 lung = test system: NCI-H460 lung
NCI-H522 lung = test system: NCI-H522 lung
NCI/ADR-RES ovarian = test system: NCI/ADR-RES ovarian
OVCAR-3 ovarian = test system: OVCAR-3 ovarian
OVCAR-4 ovarian = test system: OVCAR-4 ovarian
OVCAR-5 ovarian = test system: OVCAR-5 ovarian
OVCAR-8 ovarian = test system: OVCAR-8 ovarian
PC-3 prostate = test system: PC-3 prostate
RPMI-8226 leukemia = test system: RPMI-8226 leukemia
RXF 393 renal = test system: RXF 393 renal
SF-268 CNS = test system: SF-268 CNS
SF-295 CNS = test system: SF-295 CNS
SF-539 CNS = test system: SF-539 CNS
SK-MEL-2 melanoma = test system: SK-MEL-2 melanoma
SK-MEL-28 melanoma = test system: SK-MEL-28 melanoma
SK-MEL-5 melanoma = test system: SK-MEL-5 melanoma
SK-OV-3 ovarian = test system: SK-OV-3 ovarian
SN12C renal = test system: SN12C renal
SNB-19 CNS = test system: SNB-19 CNS
SNB-75 CNS = test system: SNB-75 CNS
SR leukemia = test system: SR leukemia
SW-620 colon = test system: SW-620 colon
T-47D breast = test system: T-47D breast
TK-10 renal = test system: TK-10 renal
U251 CNS = test system: U251 CNS
UACC-257 melanoma = test system: UACC-257 melanoma
UACC-62 melanoma = test system: UACC-62 melanoma
UO-31 renal = test system: UO-31 renal

## O=C(O)c1ccc(NCc2nc3ccccc3[nH]2)cc1
786-0 renal
  GI50: > 100 µM
  TGI: > 100 µM
A498 renal
  TGI: > 100 µM
A549 NSCLC
  GI50: > 100 µM
  TGI: > 100 µM
ACHN renal
  GI50: > 100 µM
  TGI: > 100 µM
BT-549 breast
  GI50: > 100 µM
  TGI: > 100 µM
CAKI-1 renal
  GI50: > 100 µM
  TGI: > 100 µM
CCRF-CEM leukemia
  GI50: > 100 µM
  TGI: > 100 µM
COLO 205 colon
  GI50: > 100 µM
  TGI: > 100 µM
DU-145 prostate
  GI50: > 100 µM
  TGI: > 100 µM
EKVX NSCLC
  GI50: > 100 µM
  TGI: > 100 µM
HCC-2998 colon
  GI50: > 100 µM
  TGI: > 100 µM
HCT-116 colon
  GI50: > 100 µM
  TGI: > 100 µM
HCT-15 colon
  GI50: > 100 µM
  TGI: > 100 µM
HL-60(TB) leukemia
  GI50: > 100 µM
  TGI: > 100 µM
HOP-62 NSCLC
  GI50: > 100 µM
  TGI: > 100 µM
HOP-92 NSCLC
  GI50: > 100 µM
  TGI: > 100 µM
HS 578T breast
  GI50: > 100 µM
  TGI: > 100 µM
HT29 colon
  GI50: > 100 µM
  TGI: > 100 µM
IGROV1 ovarian
  GI50: > 100 µM
  TGI: > 100 µM
K-562 leukemia
  GI50: > 100 µM
  TGI: > 100 µM
KM12 colon
  GI50: > 100 µM
  TGI: > 100 µM
LOX IMVI melanoma
  GI50: > 100 µM
  TGI: > 100 µM
M14 melanoma
  GI50: > 100 µM
  TGI: > 100 µM
MALME-3M melanoma
  GI50: 1.25 µM
  TGI: 7.52 µM
MCF7 breast
  GI50: 99.9 µM
  TGI: > 100 µM
MDA-MB-231 breast
  GI50: > 100 µM
  TGI: > 100 µM
MDA-MB-435
  GI50: > 100 µM
  TGI: > 100 µM
MOLT-4 leukemia
  GI50: > 100 µM
  TGI: > 100 µM
NCI-H226 lung
  GI50: > 100 µM
  TGI: > 100 µM
NCI-H23 lung
  GI50: > 100 µM
  TGI: > 100 µM
NCI-H460 lung
  GI50: > 100 µM
  TGI: > 100 µM
NCI-H522 lung
  GI50: > 100 µM
  TGI: > 100 µM
NCI/ADR-RES ovarian
  GI50: > 100 µM
  TGI: > 100 µM
OVCAR-3 ovarian
  GI50: > 100 µM
  TGI: > 100 µM
OVCAR-4 ovarian
  GI50: > 100 µM
  TGI: > 100 µM
OVCAR-5 ovarian
  GI50: > 100 µM
  TGI: > 100 µM
OVCAR-8 ovarian
  GI50: > 100 µM
  TGI: > 100 µM
PC-3 prostate
  GI50: > 100 µM
  TGI: > 100 µM
RPMI-8226 leukemia
  GI50: > 100 µM
  TGI: > 100 µM
RXF 393 renal
  GI50: > 100 µM
  TGI: > 100 µM
SF-268 CNS
  GI50: > 100 µM
  TGI: > 100 µM
SF-295 CNS
  GI50: > 100 µM
  TGI: > 100 µM
SF-539 CNS
  GI50: > 100 µM
  TGI: > 100 µM
SK-MEL-2 melanoma
  GI50: > 100 µM
  TGI: > 100 µM
SK-MEL-28 melanoma
  GI50: > 100 µM
  TGI: > 100 µM
SK-MEL-5 melanoma
  GI50: > 100 µM
  TGI: > 100 µM
SK-OV-3 ovarian
  GI50: > 100 µM
  TGI: > 100 µM
SN12C renal
  GI50: > 100 µM
  TGI: > 100 µM
SNB-19 CNS
  GI50: > 100 µM
  TGI: > 100 µM
SNB-75 CNS
  GI50: > 100 µM
  TGI: > 100 µM
SR leukemia
  GI50: > 100 µM
  TGI: > 100 µM
SW-620 colon
  GI50: > 100 µM
  TGI: > 100 µM
T-47D breast
  GI50: > 100 µM
  TGI: > 100 µM
TK-10 renal
  GI50: > 100 µM
  TGI: > 100 µM
U251 CNS
  GI50: > 100 µM
  TGI: > 100 µM
UACC-257 melanoma
  GI50: > 100 µM
  TGI: > 100 µM
UACC-62 melanoma
  GI50: > 100 µM
  TGI: > 100 µM
UO-31 renal
  GI50: > 100 µM
  TGI: > 100 µM

## CCOC(=O)Nc1ccc2nc(N3CCCCCC3)sc2c1
786-0 renal
  GI50: 6.86 µM
  TGI: > 100 µM
A498 renal
  GI50: 2.1 µM
  TGI: 32.2 µM
A549 NSCLC
  GI50: 3.32 µM
  TGI: > 100 µM
ACHN renal
  GI50: 9.6 µM
  TGI: > 74.1 µM
BT-549 breast
  GI50: 12 µM
  TGI: 49.6 µM
CAKI-1 renal
  GI50: 2.2 µM
  TGI: > 59.5 µM
CCRF-CEM leukemia
  GI50: 1.97 µM
  TGI: > 100 µM
COLO 205 colon
  GI50: 1.35 µM
  TGI: > 59 µM
DU-145 prostate
  GI50: 4 µM
  TGI: > 83.3 µM
EKVX NSCLC
  GI50: 5.14 µM
  TGI: > 100 µM
HCC-2998 colon
  GI50: 7.59 µM
  TGI: 48 µM
HCT-116 colon
  GI50: 0.573 µM
  TGI: > 77.9 µM
HCT-15 colon
  GI50: 0.84 µM
  TGI: > 46.2 µM
HL-60(TB) leukemia
  GI50: 0.436 µM
  TGI: 21 µM
HOP-62 NSCLC
  GI50: 3.75 µM
  TGI: > 100 µM
HOP-92 NSCLC
  GI50: 6.15 µM
  TGI: 58.9 µM
HS 578T breast
  GI50: 4.53 µM
  TGI: > 100 µM
HT29 colon
  GI50: 0.44 µM
  TGI: 9.87 µM
IGROV1 ovarian
  GI50: 4.36 µM
  TGI: > 100 µM
K-562 leukemia
  GI50: 0.501 µM
  TGI: > 72.6 µM
KM12 colon
  GI50: 0.661 µM
  TGI: > 57.5 µM
LOX IMVI melanoma
  GI50: 2.16 µM
  TGI: > 100 µM
M14 melanoma
  GI50: 0.719 µM
  TGI: > 70.4 µM
MALME-3M melanoma
  GI50: 1.35 µM
  TGI: 55.7 µM
MCF7 breast
  GI50: 0.857 µM
  TGI: > 80.6 µM
MDA-MB-231 breast
  GI50: 3.19 µM
  TGI: > 56.8 µM
MDA-MB-435
  GI50: 0.204 µM
  TGI: 0.567 µM
MOLT-4 leukemia
  GI50: 3.47 µM
  TGI: > 92.9 µM
NCI-H226 lung
  GI50: 12.3 µM
  TGI: > 68 µM
NCI-H23 lung
  GI50: 7.95 µM
  TGI: > 100 µM
NCI-H460 lung
  GI50: 1.4 µM
  TGI: > 38.7 µM
NCI-H522 lung
  GI50: 1.83 µM
  TGI: 13.2 µM
NCI/ADR-RES ovarian
  GI50: 1.03 µM
  TGI: > 36.6 µM
OVCAR-3 ovarian
  GI50: 1.66 µM
  TGI: 10.7 µM
OVCAR-4 ovarian
  GI50: 23.7 µM
  TGI: > 100 µM
OVCAR-5 ovarian
  GI50: 8.28 µM
  TGI: > 100 µM
OVCAR-8 ovarian
  GI50: 4.51 µM
  TGI: > 63.4 µM
PC-3 prostate
  GI50: 3.49 µM
  TGI: > 100 µM
RPMI-8226 leukemia
  GI50: 3.33 µM
  TGI: 26.3 µM
RXF 393 renal
  GI50: 1.99 µM
  TGI: > 26.2 µM
SF-268 CNS
  GI50: 8.25 µM
  TGI: > 100 µM
SF-295 CNS
  GI50: 0.856 µM
  TGI: 11.4 µM
SF-539 CNS
  GI50: 1.59 µM
  TGI: > 27.4 µM
SK-MEL-2 melanoma
  GI50: 2.67 µM
  TGI: > 72.5 µM
SK-MEL-28 melanoma
  GI50: 7.14 µM
  TGI: > 91.7 µM
SK-MEL-5 melanoma
  GI50: 1.04 µM
  TGI: 15.9 µM
SK-OV-3 ovarian
  GI50: 2.36 µM
  TGI: > 72.8 µM
SN12C renal
  GI50: 5.08 µM
  TGI: > 100 µM
SNB-19 CNS
  GI50: 2.84 µM
  TGI: > 100 µM
SNB-75 CNS
  GI50: 2.07 µM
  TGI: > 31.4 µM
SR leukemia
  GI50: 0.405 µM
  TGI: > 100 µM
SW-620 colon
  GI50: 0.567 µM
  TGI: > 100 µM
T-47D breast
  GI50: 4.7 µM
  TGI: > 84.3 µM
TK-10 renal
  GI50: 5.07 µM
  TGI: > 91 µM
U251 CNS
  GI50: 1.09 µM
  TGI: > 100 µM
UACC-257 melanoma
  GI50: 15.2 µM
  TGI: 97.2 µM
UACC-62 melanoma
  GI50: 1.45 µM
  TGI: > 100 µM
UO-31 renal
  GI50: 6.17 µM
  TGI: 75.1 µM
